Reference: patent US20130210061A1, “Method of Screening Damp-Dry Malodor Inhibitor and Method of Evaluating Damp-Dry Malodor Inhibitor” (KAO CORPORATION, priority 2010, published 2013)
Where two headings read alike, the source gives them in different places.

Assays:
Assay in all cases: Example 1: quantification of 4M3H on cotton fabric with 14-methylhexadecanoic acid
[1] = tested on: M. osloensis NCIMB10693; format: cell-based, Moraxella osloensis
Experimental: (§1) 10 mL of methanol was added to the towel that had been left to stand still for 24 hours, and 1 mL of the methanol was mixed with 1 mL of ADAM (9-anthrydiazomethanene, manufactured by Funakoshi Corp., 0.1 w/v %). The mixture was left to stand for 60 minutes at room temperature, and thus derivatization was carried out.
(§2) Thereafter, 10 μL of the solution was analyzed by using LC-FL (liquid chromatography apparatus: HITACHI ELITE LaChrom (trade name, manufactured by Hitachi, Ltd.), column: Lichrosphere 100 RP-8(e) (trade name, manufactured by Agilent Technologies, Inc., 5 μm×125 mm×4 mmφ), column temperature: 40° C., eluent a mixed solution of acetonitrile/water=7/3 (volume ratio), flow rate: 1.0 mL/min, detector: excitation wavelength (365 nm), measurement wavelength (412 nm)), and thereby quantification of 4M3H thus produced was carried out. In regard to the amount of production of 4M3H, a sample which produced 4M3H in an amount of more than 1 μg was rated as “[…]”; a sample which produced 4M3H in an amount of more than 0.1 μg and 1 μg or less was rated as “∘”; a sample which produced 4M3H in an amount of more than 0 μg and 0.1 μg or less was rated as “Δ”; and a sample in which no 4M3H was detected was rated as “x”.
(§3) One platinum loop of each of Moraxella osloensis NCIMB10693, Moraxella sp. 4-1, Psychrobacter pacificensis NBRC103191, Psychrobacter glacincola NCIMB101053, Pseudomonas alcaligenes No. 41, Acinetobacter calcoaceticus HH2BD-49, Saccaromyces cerevisiae NBRC1661, Rhodotorula mucilaginosa NBRC0909 and Rhodotorula slooffiae 13c was inoculated into 5 mL of a SCD liquid medium (manufactured by Nihon Pharmaceutical Co., Ltd.), and the microbial cells were subjected to shaking culture (160 rpm) at 35° C. for 24 hours. The microbial cells obtained after culture were centrifuged (8000×g, 10 minutes), the supernatant was removed, and then the microbial cells were suspended in 5 mL of physiological saline. The suspension was centrifuged again (8000×g, 10 minutes), subsequently the supernatant was removed, and a microbial suspension was prepared by using physiological saline such that the OD600 would be 0.1.
(§4) Furthermore, 0.1 mL each of 10-ppm or 100-ppm aqueous solutions of the compounds shown in the following Table 6 was applied on the fabric described above. As a control, a fabric on which sterilized water was applied instead of the compounds described below was also prepared.
(§5) On a plain-woven cotton fabric prepared as described above, 0.1 mL each of the various microbial suspensions was inoculated, and the samples were left to stand still under humidified conditions at 37° C. for 24 hours and were subjected to an evaluation such as described below.
(§6) Quantification of 4M3H was carried out by the same method as that used in Test Example 3, and by taking as a reference the 4M3H production amount of a sample on which sterilized water was applied as a test substance, the 4M3H production amounts in the case of applying other test substances were evaluated on the basis of the following criteria. • A: (4M3H production amount in the case of applying a test substance)<( 1/100 of the 4M3H production amount in the case of applying sterilized water) • B: ( 1/100 of the 4M3H production amount in the case of applying sterilized water)≦(4M3H production amount in the case of applying a test substance)<( 1/10 of the 4M3H production amount in the case of applying sterilized water) • C: ( 1/10 of the 4M3H production amount in the case of applying sterilized water)≦(4M3H production amount in the case of applying a test substance)<(4M3H production amount in the case of applying sterilized water) • D: (4M3H production amount in the case of applying sterilized water)≦(4M3H production amount in the case of applying a test substance)

[2] = tested on: P. glacincola NBRC101053; format: cell-based, Psychrobacter glacincola; conditions: 37° C., 24 hours, vs sterilized water
Experimental: as §1, §2, §3, §4, §5, §6

[3] = tested on: P. pacificensis NBRC103191; format: cell-based, Psychrobacter pacificensis; conditions: 37° C., 24 hours, vs sterilized water
Experimental: as §1, §2, §3, §4, §5, §6

[4] = tested on: R. slooffiae 13c; format: cell-based, Rhodotorula slooffiae; conditions: 37° C., 24 hours, vs sterilized water
Experimental: as §1, §2, §3, §4, §5, §6

[5] = tested on: Moraxella sp. 4-1; format: cell-based; conditions: 37° C., 24 hours, vs sterilized water
Experimental: as §1, §2, §3, §4, §5, §6

[6] = tested on: A. calcoaceticus HH2BD-49; format: cell-based, Acinetobacter calcoaceticus; conditions: 37° C., 24 hours, vs sterilized water
Experimental: as §1, §2, §3, §4, §5, §6

[7] = tested on: R. muculaginosa NBRC0909; format: cell-based, Rhodotorula mucilaginosa; conditions: 37° C., 24 hours, vs sterilized water
Experimental: as §1, §2, §3, §4, §5, §6

[8] = tested on: P. alcaligenes No. 41; format: cell-based, Pseudomonas alcaligenes; conditions: 37° C., 24 hours, vs sterilized water
Experimental: as §1, §2, §3, §4, §5, §6

[9] = tested on: S. cerevisiae NBRC1661; format: cell-based, Saccaromyces cerevisiae; conditions: 37° C., 24 hours, vs sterilized water
Experimental: as §1, §2, §3, §4, §5, §6

[10] = Faucicola osloensis, NCIMB10693, 24 h, read-out: Production amount of 4M3H
[11] = Faucicola osloensis, 100 ppm test substance, M. osloensis NCIMB10693, cotton fabric with 14-methylhexadecanoic acid, 37° C., 24 hours, vs sterilized water, read-out: Production amount of 4M3H
[12] = 10 ppm test substance, M. osloensis NCIMB10693, cotton fabric with 14-methylhexadecanoic acid, 37° C., 24 hours, vs sterilized water
[13] = 100 ppm test substance, M. osloensis NCIMB10693, cotton fabric with 14-methylhexadecanoic acid, 37° C., 24 hours, vs sterilized water

## CCCCCCCCCCCCCCCC[N+](C)(C)C [Hexadecyl trimethyl ammonium chloride]
[1]; [10]
  activity at 100 ppm: > 100%

## CCCCCCCCCCCCCCCC(=O)O [Palmitic acid]
[1]; [11]
  activity at 100 ppm: 10 to 100%

## O=C/C=C/c1ccccc1 [Cinnamic aldehyde]
[1]; [10]
  activity at 10 ppm: 10 to 100%
  activity at 100 ppm: < 1%

## CCCCCCCCCCCCCC[N+](C)(C)C [Tetradecyl trimethyl ammonium chloride]
[1]; [11]
  activity at 100 ppm: 10 to 100%

## Polylysine
[1]; [12]
  Production amount of 4M3H: D ((4M3H production amount in the case of applying sterilized water)≦(4M3H production amount in the case of applying a test substance))
[1]; [13]
  Production amount of 4M3H: C (( 1/10 of the 4M3H production amount in the case of applying sterilized water)≦(4M3H production amount in the case of applying a test substance)<(4M3H production amount in the case of applying sterilized water))

## CC/C=C\C/C=C\C/C=C\CCCCCCCC(=O)O [Linolenic acid]
[1]; [11]
  activity at 100 ppm: 1 to 10%

## Sodium alkylbenzene sulfonate [Sodium akylbenzene sulfonate]
[1]; [13]
  Production amount of 4M3H: C (( 1/10 of the 4M3H production amount in the case of applying sterilized water)≦(4M3H production amount in the case of applying a test substance)<(4M3H production amount in the case of applying sterilized water))

## CCCCC/C=C\C/C=C\CCCCCCCC(=O)O [Linoleic acid]
[1]; [11]
  activity at 100 ppm: 1 to 10%

## CCCCCCCCCCCCCCCCCC(=O)O [Stearic acid]
[1]; [11]
  activity at 100 ppm: 10 to 100%

## CN(C)c1ccc(/C([S-])=C(/[S-])c2ccccc2)cc1.CN(C)c1ccc(/C([S-])=C(/[S-])c2ccccc2)cc1.[Ni] [Bis(4-dimethylaminodithiobenzil)nickel]
[2]; 10 ppm test substance
  Production amount of 4M3H: A ((4M3H production amount in the case of applying a test substance)<( 1/100 of the 4M3H production amount in the case of applying sterilized water))
[2]; 100 ppm test substance
  Production amount of 4M3H: A ((4M3H production amount in the case of applying a test substance)<( 1/100 of the 4M3H production amount in the case of applying sterilized water))
[1]; [12]
  Production amount of 4M3H: C (( 1/10 of the 4M3H production amount in the case of applying sterilized water)≦(4M3H production amount in the case of applying a test substance)<(4M3H production amount in the case of applying sterilized water))
[1]; [13]
  Production amount of 4M3H: A ((4M3H production amount in the case of applying a test substance)<( 1/100 of the 4M3H production amount in the case of applying sterilized water))
[3]; 10 ppm test substance
  Production amount of 4M3H: C (( 1/10 of the 4M3H production amount in the case of applying sterilized water)≦(4M3H production amount in the case of applying a test substance)<(4M3H production amount in the case of applying sterilized water))
[3]; 100 ppm test substance
  Production amount of 4M3H: B (( 1/100 of the 4M3H production amount in the case of applying sterilized water)≦(4M3H production amount in the case of applying a test substance)<( 1/10 of the 4M3H production amount in the case of applying sterilized water))
[4]; 10 ppm test substance
  Production amount of 4M3H: C (( 1/10 of the 4M3H production amount in the case of applying sterilized water)≦(4M3H production amount in the case of applying a test substance)<(4M3H production amount in the case of applying sterilized water))
[4]; 100 ppm test substance
  Production amount of 4M3H: A ((4M3H production amount in the case of applying a test substance)<( 1/100 of the 4M3H production amount in the case of applying sterilized water))
[5]; 10 ppm test substance
  Production amount of 4M3H: B (( 1/100 of the 4M3H production amount in the case of applying sterilized water)≦(4M3H production amount in the case of applying a test substance)<( 1/10 of the 4M3H production amount in the case of applying sterilized water))
[5]; 100 ppm test substance
  Production amount of 4M3H: A ((4M3H production amount in the case of applying a test substance)<( 1/100 of the 4M3H production amount in the case of applying sterilized water))
[6]; 10 ppm test substance
  Production amount of 4M3H: B (( 1/100 of the 4M3H production amount in the case of applying sterilized water)≦(4M3H production amount in the case of applying a test substance)<( 1/10 of the 4M3H production amount in the case of applying sterilized water))
[6]; 100 ppm test substance
  Production amount of 4M3H: A ((4M3H production amount in the case of applying a test substance)<( 1/100 of the 4M3H production amount in the case of applying sterilized water))
[7]; 10 ppm test substance
  Production amount of 4M3H: B (( 1/100 of the 4M3H production amount in the case of applying sterilized water)≦(4M3H production amount in the case of applying a test substance)<( 1/10 of the 4M3H production amount in the case of applying sterilized water))
[7]; 100 ppm test substance
  Production amount of 4M3H: A ((4M3H production amount in the case of applying a test substance)<( 1/100 of the 4M3H production amount in the case of applying sterilized water))
[8]; 10 ppm test substance
  Production amount of 4M3H: C (( 1/10 of the 4M3H production amount in the case of applying sterilized water)≦(4M3H production amount in the case of applying a test substance)<(4M3H production amount in the case of applying sterilized water))
[8]; 100 ppm test substance
  Production amount of 4M3H: A ((4M3H production amount in the case of applying a test substance)<( 1/100 of the 4M3H production amount in the case of applying sterilized water))
[9]; 10 ppm test substance
  Production amount of 4M3H: C (( 1/10 of the 4M3H production amount in the case of applying sterilized water)≦(4M3H production amount in the case of applying a test substance)<(4M3H production amount in the case of applying sterilized water))
[9]; 100 ppm test substance
  Production amount of 4M3H: A ((4M3H production amount in the case of applying a test substance)<( 1/100 of the 4M3H production amount in the case of applying sterilized water))

## Polyoxyethylene (10) lauryl ether
[1]; [13]
  Production amount of 4M3H: D ((4M3H production amount in the case of applying sterilized water)≦(4M3H production amount in the case of applying a test substance))

## CCCCCCCCCCCC[N+](C)(C)C [Dodecyl trimethyl ammonium chloride]
[1]; [10]
  activity at 100 ppm: 10 to 100%
